How the values were obtained:
[1] = system: DCs derived from mouse bone marrow; type: cell-based
Protocol: (§1) (FIG. 24A) Flow chart describing the experimental design for testing the effects of anti-IL-17RB antibody and loop peptide on IL-17E-induced expression of IL-4 and IL-13 in peripheral blood mononuclear cells (PBMCs). PBMCs were purified by Ficoll-paque and used for the following experiments. (FIG. 24B to FIG. 24E) IL-4 and IL-13 expression induced by IL-17B or IL-17E in the PBMCs was determined by RT-qPCR after mIgG or anti-IL-17RB antibody pretreatment (FIG. 24B and FIG. 24C) and control or loop peptide pretreatment (FIG. 24D and FIG. 24E), respectively. (FIG. 24F and FIG. 24G) The DCs derived from mouse bone marrow were treated with the control or loop peptides, separately. (FIG. 24F) Flow cytometry analysis using anti-CD80, CD86 and MHC-II antibodies was performed to determine the activity of the DCs after incubation with the control or loop peptides for 48 hrs. (FIG. 24G) The activities of DCs were quantified by gating the area of the CD80, CD86 and MHC-II-positive cells (n=3). Data are mean±s.d.

[2] = system: peripheral blood mononuclear cells (PBMCs); experiment: IL-17E-induced IL-4 and IL-13 mRNA expression in PBMCs (RT-qPCR); type: cell-based; details: peptide pretreatment
Protocol: as §1

CFPAC1-GFP/Luc cells = experiment: Orthotopic CFPAC1-GFP/Luc xenograft pancreatic cancer model in NOD-SCID mice; type: in vivo, mouse
[3] = system: PDX-derived tumor cells (PC080, PC084); experiment: Aggressive behavior of PDX-derived pancreatic tumor cells (RT-qPCR, invasion, SACF); type: cell-based, human; details: peptides 30 mins, then 50 ng/ml rIL-17B
Protocol: FIGS. 19A to 19D include charts showing that treatment with the loop peptide suppresses aggressive behavior of patient-derived pancreatic tumor cells. (FIG. 19A) CFPAC1 cells were treated with Alexa Fluor 568-labeled or non-labeled cold peptides of TAT48-57 (Control) and TAT-IL-17R403-416 (Loop) for 30 mins, respectively. Confocal microscopy was used for visualization of peptide penetration into cells. (FIG. 19B) The PDX-derived tumor cells (PC080 left, PC084 right) were pretreated with the peptides for 30 mins and then treated with 50 ng/ml rIL-17B for 2 hrs in serum-free conditions. (FIG. 19C and FIG. 19D) These cells were measured by RT-qPCR for the cytokine gene mRNA expression (n=3), or for Invasion assay (n=4) (FIG. 19C) and SACF assay (n=4) (FIG. 19D). Data in (FIG. 19B—FIG. 19D) are mean±s.d. * P<0.05, **P<0.001 by two-tailed Student's t-test.

[4] = system: pancreatic cancer cells expressing IL-17RB; experiment: Soft agar colony formation (SACF) assay after peptide treatment; type: cell-based, human; details: CFPAC1 and PDX-derived cells treated with peptide
Description: FIGS. 7A to 7J include charts showing that disruption of the interaction between IL-17RB and MLK4 by the loop peptide blocks oncogenic progression. (FIG. 7A) Peptides TAT48-57 (Control) (SEQ ID NO: 21) and TAT-IL-17RB403-416 (Loop) (SEQ ID NO: 30) used for the following experiments. (FIG. 7B) Immunoblotting analysis of IL-17RB binding to MLK4 with Loop peptide treatment. 293T cells expressing Flag-MLK4 and HA-IL-17RB were pretreated with the control and loop peptides with different dose (0, 0.1, 1, 10, 50, 100 ng/ml) for 30 mins, and then added rIL-17B for 30 mins. […] CCL20 and TFF/mRNA expression of these cells were measured by RT-qPCR (n=3) (FIG. 7D), the same cells were for invasion assay (n=4) (FIG. 7E) and SACF assay (n=4) (FIG. 7F). […] (FIG. 7I) The experimental EKP mice (n=7 for each group) were euthanized at Day 56, and the metastatic tumor nodules in the lungs were counted. […]
FIGS. 19A to 19D include charts showing that treatment with the loop peptide suppresses aggressive behavior of patient-derived pancreatic tumor cells. […] (FIG. 19C and FIG. 19D) These cells were measured by RT-qPCR for the cytokine gene mRNA expression (n=3), or for Invasion assay (n=4) (FIG. 19C) and SACF assay (n=4) (FIG. 19D). […]
Soft agar colony formation assay was performed as described (7). […] Crystal violet-stained colonies greater than 50 μm in size were counted and analyzed objectively by light microscopy.

[5] = NOD-SCID mice, peptide 160 μg/100 μl PBS i.p. twice per week

Sequence: RKKRRQRRRVCDGTCGKSEGSPS (IL-17RB inhibitory peptide, fusion protein) [loop peptide]
- bone marrow-derived dendritic cell activation (CD80, CD86, MHC-II) [1]: does not suppress IL-17E-induced IL-4 and IL-13 mRNA expression in PBMCs or affect
- IL-17E-induced IL-4 and IL-13 mRNA expression [2]: does not suppress
- distant metastases of the pancreatic tumors to liver and lung (IVIS) (CFPAC1-GFP/Luc cells; NOD-SCID mice euthanized at Day 34): significantly suppressed
- expression of phospho-IL-17RB in the pancreatic tumors (IHC) (CFPAC1-GFP/Luc cells; [5]): inhibited
- lifespan (Kaplan-Meier survival analysis) (CFPAC1-GFP/Luc cells; [5]): prolonged
- tumor growth (IVIS bioluminescence) (CFPAC1-GFP/Luc cells; [5]): significantly impeded
- pancreatic tumor progression (CFPAC1-GFP/Luc cells; orthotopic xenograft, NOD-SCID mice): suppresses
- aggressive behavior of patient-derived pancreatic tumor cells [3]: suppresses
- colony formation ability (SACF) [4]: diminished

Source: patent US20240124528A1, “ANTAGONIST OF INTERLEUKIN-17B RECEPTOR (IL-17RB) AND USE THEREOF” (Academia Sinica, priority 2020, published 2024)
